Assay results reported in patent publication US20120022159A1, “AMPHIPHILIC STAR-LIKE OR SCORPION-LIKE MACROMOLECULES, VARIOUS COMPOSITIONS AND USES THEREOF” (priority 2004, published 2012).

Tested on: human umbilical vein endothelial cells (HUVECs)
Assay: Uptake of dye-loaded AScMs in HUVEC monitored by cellular accumulation of fluorescent dyes
Type: cell-based
Procedure: Methods Amphiphilic scorpion-like macromolecules (AScMs) are block copolymers that form micelles at concentrations above their CMC (5×10^−7 M). The uptake of AScMs was investigated in human umbilical vein endothelial cells (HUVECs) by monitoring cellular accumulation of the fluorescent dyes (R110, R123 and LY, respectively). Briefly, fluorescent dyes were added to AScMs solutions (0.0001-1 mM) and incubated at 37° C. for at least 6 hours prior to cell incubation. After determination of R110, R123 and LY partitioning into the AScMs micelles, dye-loaded AScMs were incubated with HUVEC. Uptake of dye-loaded AScMs was investigated as a function of time (15, 30, 60, 90 and 120 minutes) and AScMs concentration (0.0001-1 mM). Furthermore, intracellular distribution and localization of dye-loaded AScMs in HUVEC was investigated using confocal microscope. […] The decreased accumulation of R110, R123 and LY in HUVEC monolayers was inversely correlated with the extent of their partitioning into AScMs. Uptake of R110, R123 and LY-loaded micelles was also time-dependent. […] Furthermore, confocal microscopy studies confirmed increased fluorescence activity in the cells with increase in the incubation time. […] Thus, AScMs can be used to localize therapeutic compounds into cells, for example, to achieve a sustained therapeutic effect.

[1] = AScMs at concentrations above the CMC
[2] = AScMs at concentrations below the CMC

Row | SMILES | dye accumulation in HUVEC monolayers [1] | dye accumulation in HUVEC monolayers [2]
1 | NNC(=O)NN1C(=O)c2cc(S(=O)(=O)[O-])cc3c(N)c(S(=O)(=O)[O-])cc(c23)C1=O.[Li+].[Li+] [LY] | significant decrease | significant increase
2 | Nc1ccc2c(-c3ccccc3C(=O)O)c3ccc(N)cc3[o+]c2c1.[Cl-] [R110] | significant decrease | significant increase
3 | COC(=O)c1ccccc1-c1c2ccc(N)cc2[o+]c2cc(N)ccc12 [R123] | significant decrease | significant increase
